Test results: PMC3513267 (Journal of molecular biology, 2011)
Read-outs that look alike come from different tables or passages of the source.

Tests used:
[1] = cited from earlier work
[2] = NMR secondary structure; details: in the presence of DPC micelles
[3] = target: PKA-C (Mus musculus, UniProt P05132); assay: PKA-C catalyzed steady-state phosphorylation assay; type: biochemical; details: for catalytic efficiency kcat/Km: spectrophotometric, 340 nm, 299 K, 50 mM MOPS pH 7.0, 20 mM DTT, 10 mM MgCl2, 5.0 mM ATP, 1.0 mM PEP, 0.2 mM NADH, triplicate

Row | Substance | R-state population ([1]; free in solution) | secondary structure (CSI and SSP scores) [2] | catalytic efficiency kcat/Km ([3]; absence of membranes) | R-state population ([1]; in DPC micelles) | phosphorylation efficiency (in words) ([3]; PLN in DPC micelles, most helical construct studied) | catalytic efficiency kcat/Km ([3]; full-length PLN in DPC micelles)
1 | PLN1–20: peptide corresponding to the cytoplasmic domain Ia of phospholamban (MEKVQYLTRSAIRRASTIEM; UniProt P26678 1-20, looked up, fragment) | 100% | the peptide forms a stable α-helix | ~ 0.6 µM^−1s^−1 | – | – | –
2 | PLN: synthetic and recombinant versions of full-length PLN with no lipidation; membrane protein that inhibits SERCA | – | – | – | ~ 4% | the phosphorylation efficiency is drastically lower | ~ 0.06 µM^−1s^−1
